Test results reported in publication PMC8116058, “De novo macrocyclic peptides dissect energy coupling of a heterodimeric ABC transporter by multimode allosteric inhibition” (eLife, 2021).
Positions of bridges follow the written chain, without caps; N, C: chain ends. Non-standard residues stand in square brackets, D forms with d. Residues, ends and D or L forms follow the SMILES beside them. *: point of attachment. 5FAM = O=C1OC2(c3ccc(O)cc3Oc3cc(O)ccc32)c2ccc(C(=O)*)cc21; βAla = NCCC(=O)O

Tests used:
[1] = system: TmrA^EQB; assay: Nucleotide occlusion, catalytically reduced variant; type: biochemical, Thermus thermophilus; settings: CP^F 4 µM; 5 min 45°C
Protocol: Figure 5. […] (A, B) CP6^F (A) or CP13^F (B, 50 nM each) were incubated with increasing concentrations of detergent-solubilized inward-facing TmrAB (in the absence of Mg-ATP) or outward-facing TmrA^EQB, which was trapped with Mg-ATP (1 mM) for 5 min at 45°C as described ([Hofmann et al., 2019]; [Stefan et al., 2020]). Immediately after, the fluorescence anisotropy was assayed at λex/em = 485/520 nm. The difference in fluorescence polarization was normalized to free and fully bound CP^F. Data were fitted by a one-site binding model. […] TmrAB (2 µM each) were mixed with CP^Fs (4 µM), ATP (1 mM, traced with [α^32P]-ATP), and MgCl2 (5 mM) for 5 min at 4°C or 45°C. Cold ATP (10 mM) was added, and freely exchangeable nucleotides were removed by rapid gel filtration. Occluded nucleotides were analyzed by thin layer chromatography and autoradiography. Representative radiograms for independent triplicates are shown. (D) Stably occluded nucleotides, [α^32P]-ATP and [α^32P]-ADP, were quantified by autoradiography. Data were normalized to the vanadate-trapped state. In (A, B, D), mean values ± SD (n = 3) are shown. Figure 5—source data 1. Source Data for Figure 5. Figure 5—figure supplement 1. […] (A) CP^Fs (50 nM each) were incubated with increasing concentrations of detergent-solubilized IF TmrAB in the inward-facing (IF) conformation (absence of Mg-ATP) or TmrA^EQB populated in the outward-facing (OF) conformation, which was trapped in the OF conformation by Mg-ATP (1 mM) after 5 min incubation at 45°C. The difference in fluorescence polarization was normalized to unbound (0%) and 100% bound CP^F. Data were fitted by a one-site binding model. Fluorescence anisotropy was recorded at λex/em = 485/520 nm. […] TmrA^EQB (2 µM) were incubated in the absence and presence of CP^Fs (4 µM each), ATP (1 mM, traced with [α^32P]-ATP), and MgCl2 (5 mM) for 5 min at 4°C or 45°C. Cold ATP (10 mM) was added, and free nucleotides were removed by rapid gel filtration. Occluded nucleotides were analyzed by thin layer chromatography and autoradiography. Representative radiograms for independent triplicates are shown. […] Figure 5—figure supplement 1—source data 1.
We also examined the impact of CP^Fs on the IF-to-OF transition of wild-type TmrAB induced by ATP binding through nucleotide occlusion (stable trapping) as the readout. We induced the IF-to-OF switch with radiotraced [α^32P]-ATP for 5 min at 45°C in the presence and absence of CPs and removed unbound nucleotides by rapid gel filtration. Subsequently, the occluded nucleotides were identified and quantified by thin layer chromatography and autoradiography (Figure 5C, D).
Detergent-solubilized TmrAB (2 µM) were incubated with ATP (1 mM) traced with [α^32P]-ATP (Hartmann Analytic), MgCl2 (5 mM), CP^Fs (4 µM), or orthovanadate (1 mM) for 5 min at 45°C. […]

[2] = system: TmrAB; assay: Competition of C4F peptide binding by CP^Bs (fluorescence anisotropy); design: species or system Thermus thermophilus; settings: C4F 50 nM + TmrAB 4 µM + competitor (CP^B 6 µM or C4^ATTO655 10 µM)
From the text: To elucidate the mechanistic basis for the inhibition of ATP hydrolysis and substrate transport, we investigated the effects of CPs on substrate binding. In the first approach, fluorescent CP^Fs were used as reporters in fluorescence polarization. […] In addition, we examined the impact of CP^Bs on ATP binding to TmrAB by scintillation proximity assays (SPA) (Figure 4C). […] Taken together, CPs are high-affinity allosteric inhibitors of TmrAB that leave ATP binding and substrate interaction largely unaffected, while impairing ATP hydrolysis and substrate translocation across the membrane.
Figure 4. […] (A) CP^Fs binding TmrAB is not affected by substrate peptide binding. […] For competition, C4^ATTO655 peptide (2 µM) or R9LQK peptide (200 µM) were added. (B) Binding of C4F peptide is not affected by CP^Bs. C4F peptides (50 nM) were mixed with TmrAB (4 µM), and fluorescence anisotropy was monitored as described in (A). For competition, C4^ATTO655 (10 µM) or CP^Bs (6 µM) were added. […] TmrAB (0.2 µM) were immobilized on SPA beads and incubated with ATP (3 μM, traced with ^3H-ATP) in the presence and absence of CP^Bs (1 µM each) for 30 min on ice. ATP binding was monitored by SPA. Background values were determined after releasing TmrAB complexes from the beads by adding imidazole (200 mM). The background signal in the absence of CP^Bs was set to 0 cpm. […] As this is an equilibrium experiment, this can be rationalized by the fact that CP13 stabilizes the ATP-bound OF conformer. Figure 4—source data 1. Source data for Figure 4.
To determine equilibrium binding constants, CP^Fs (50 nM) were incubated with increasing concentrations of TmrAB-containing or empty liposomes. To probe the conformational selectivity, CP^Fs (50 nM) were mixed with detergent-solubilized IF TmrAB or OF TmrA^EQB. Before, OF TmrA^EQB was nucleotide-trapped by incubation with ATP (1 mM) and MgCl2 (3 mM) in the absence of CP^Fs for 5 min at 45°C. […] For peptide competition studies, RRYC^fluoresceinKSTEL (C4F, 50 nM) were incubated with detergent-solubilized TmrAB (4 µM), CP^Bs (6 µM), or C4^ATTO655 (10 µM). […] Fluorescence anisotropy was analyzed at λex/em of 485/520 nm using a microplate reader (CLARIOstar, BMG LABTECH). Fluorescence anisotropy was calculated using:(1) r=I||−I⊥/I||+2⋅I⊥ with I||: parallel intensity and I⊥: perpendicular intensity. Binding of CP^Fs were fitted by a one-site binding model (Langmuir 1:1) using:(2) Y=Bmax∙[L]/KD+[L] with Y: binding, Bmax: maximal binding, KD: equilibrium dissociation constant, and [L]: ligand concentration. Data represent mean ± SD from three experiments.

Compound	Effect on ATP occlusion, TmrA^EQB [1]	Bound C4F peptide, fluorescence anisotropy [2]
CC(C)[C@@H]1NC(=O)[C@H](Cc2ccccc2)NC(=O)[C@@H]2CCCN2C(=O)[C@H](CC(N)=O)NC(=O)[C@H](Cc2c[nH]c3ccccc23)NC(=O)[C@H](C(C)C)NC(=O)[C@H](Cc2ccc(O)cc2)NC(=O)[C@H](Cc2ccccc2)NC(=O)[C@@H](Cc2ccc(O)cc2)NC(=O)CSC[C@@H](C(=O)NCC(=O)N[C@@H](CO)C(=O)NCCC(=O)NCCC(=O)N[C@@H](CCCNC(=N)N)C(=O)N[C@@H](CCCCNC(=O)c2ccc3c(c2)C(=O)OC32c3ccc(O)cc3Oc3cc(O)ccc32)C(N)=O)NC(=O)[C@H](CCCCN)NC(=O)[C@H](Cc2ccccc2)NC1=O [CP14] ({CH2CO}-[dY]FYVWNPFVFKCGS[βAla][βAla]RK(5FAM)-NH2; thioether N-12; C-terminus assumed)	ATP is occluded in the presence or absence	0.136
CC[C@H](C)[C@@H]1NC(=O)[C@H]([C@@H](C)O)NC(=O)[C@H](CC(C)C)NC(=O)[C@H](Cc2c[nH]c3ccccc23)NC(=O)[C@H](Cc2ccccc2)NC(=O)[C@H](CC(N)=O)NC(=O)[C@H](CCC(=O)O)NC(=O)[C@H](CC(C)C)NC(=O)[C@H](CS)NC(=O)[C@H](Cc2c[nH]cn2)NC(=O)[C@H](CO)NC(=O)[C@@H](Cc2ccc(O)cc2)NC(=O)CSC[C@@H](C(=O)NCC(=O)N[C@@H](CO)C(=O)NCCC(=O)NCCC(=O)N[C@@H](CCCNC(=N)N)C(=O)N[C@@H](CCCCNC(=O)c2ccc3c(c2)C(=O)OC32c3ccc(O)cc3Oc3cc(O)ccc32)C(N)=O)NC(=O)[C@H](CC(C)C)NC1=O [CP6] ({CH2CO}-[dY]SHCLENFWLTILCGS[βAla][βAla]RK(5FAM)-NH2; thioether N-14)	inhibited ATP occlusion	0.124
CC(C)C[C@@H]1NC(=O)[C@H](Cc2ccccc2)NC(=O)CNC(=O)[C@H](CO)NC(=O)[C@H](Cc2ccccc2)NC(=O)[C@H](CC(=O)O)NC(=O)[C@@H]2CCCN2C(=O)[C@H]([C@@H](C)O)NC(=O)[C@@H](Cc2ccc(O)cc2)NC(=O)CSC[C@@H](C(=O)NCC(=O)N[C@@H](CO)C(=O)NCCC(=O)NCCC(=O)N[C@@H](CCCNC(=N)N)C(=O)N[C@@H](CCCCNC(=O)c2ccc3c(c2)C(=O)OC32c3ccc(O)cc3Oc3cc(O)ccc32)C(N)=O)NC(=O)[C@H](C)NC(=O)[C@H](CC(N)=O)NC(=O)[C@H](CCCNC(=N)N)NC(=O)[C@H](CC(C)C)NC(=O)[C@H](Cc2ccccc2)NC(=O)[C@H](C)NC1=O [CP12] ({CH2CO}-[dY]TPDFSGFLAFLRNACGS[βAla][βAla]RK(5FAM)-NH2; thioether N-16)	inhibited ATP occlusion	0.128
CC[C@H](C)[C@@H]1NC(=O)[C@H](Cc2c[nH]c3ccccc23)NC(=O)[C@H](CC(N)=O)NC(=O)[C@H](C)NC(=O)[C@H](CO)NC(=O)[C@@H]2CCCN2C(=O)[C@H](CC(=O)O)NC(=O)[C@@H](Cc2ccc(O)cc2)NC(=O)CSC[C@@H](C(=O)NCC(=O)N[C@@H](CO)C(=O)NCCC(=O)NCCC(=O)N[C@@H](CCCNC(=N)N)C(=O)N[C@@H](CCCCNC(=O)c2ccc3c(c2)C(=O)OC32c3ccc(O)cc3Oc3cc(O)ccc32)C(N)=O)NC(=O)[C@H]([C@@H](C)O)NC(=O)[C@H](CC(C)C)NC(=O)[C@H](CC(C)C)NC(=O)[C@H](C(C)C)NC(=O)[C@H](CC(C)C)NC1=O [CP13] ({CH2CO}-[dY]DPSANWILVLLTCGS[βAla][βAla]RK(5FAM)-NH2; thioether N-14; C-terminus assumed)	ATP is occluded in the presence or absence	0.141
